# Source: PubChem BioAssay (NCI)
#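 How tested: cells in 96-well plates exposed to compound for 48 hours at five concentrations. TGI marks complete inhibition of growth.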
# Legend:
# Assay in all cases: inhibition of tumour cell growth, NCI panel, 48 h
# [1] = tested on: NCI/ADR-RES ovarian
# [2] = tested on: MDA-N
# [3] = tested on: NCI-H226 lung
# [4] = tested on: OVCAR-8 ovarian
# [5] = tested on: K-562 leukemia
# [6] = tested on: TK-10 renal
# [7] = tested on: 786-0 renal
# [8] = tested on: RXF 393 renal
# [9] = tested on: NCI-H460 lung
# [10] = tested on: HOP-62 NSCLC
# [11] = tested on: MALME-3M melanoma
# [12] = tested on: SN12C renal
# [13] = tested on: SF-539 CNS
# [14] = tested on: HL-60(TB) leukemia
# [15] = tested on: IGROV1 ovarian
# [16] = tested on: U251 CNS
# [17] = tested on: SF-268 CNS
# [18] = tested on: DU-145 prostate
# [19] = tested on: OVCAR-3 ovarian
# [20] = tested on: CCRF-CEM leukemia
# [21] = tested on: SK-OV-3 ovarian
# [22] = tested on: CAKI-1 renal
# [23] = tested on: M14 melanoma
# [24] = tested on: LOX IMVI melanoma
# [25] = tested on: EKVX NSCLC
# [26] = tested on: COLO 205 colon
# [27] = tested on: MDA-MB-435
# [28] = tested on: MDA-MB-231 breast
# [29] = tested on: T-47D breast
# [30] = tested on: HS 578T breast
# [31] = tested on: SK-MEL-2 melanoma
# [32] = tested on: RPMI-8226 leukemia
# [33] = tested on: BT-549 breast
# [34] = tested on: HCT-116 colon
# [35] = tested on: SNB-19 CNS
# [36] = tested on: NCI-H522 lung
# [37] = tested on: KM12 colon
# [38] = tested on: SW-620 colon
# [39] = tested on: NCI-H23 lung
# [40] = tested on: PC-3 prostate
# [41] = tested on: A549 NSCLC
# [42] = tested on: SK-MEL-5 melanoma
# [43] = tested on: MCF7 breast
# [44] = tested on: UO-31 renal
# [45] = tested on: HOP-92 NSCLC
# [46] = tested on: HCT-15 colon
# [47] = tested on: SK-MEL-28 melanoma
# [48] = tested on: SF-295 CNS
# [49] = tested on: OVCAR-5 ovarian
# [50] = tested on: SR leukemia
# [51] = tested on: A498 renal
# [52] = tested on: ACHN renal
# [53] = tested on: UACC-257 melanoma
# [54] = tested on: UACC-62 melanoma
# [55] = tested on: MOLT-4 leukemia
# [56] = tested on: SNB-75 CNS
# [57] = tested on: HT29 colon
# [58] = tested on: OVCAR-4 ovarian
# [59] = tested on: HCC-2998 colon
smiles,measurement,setting,value
O=C1C[C@@H](Sc2ccccc2)C2(OCCO2)C2ON3CCCC[C@H]3[C@H]12 (stereo partly drawn),TGI,[1],18.9 µM
same,TGI,[2],33.3 µM
same,TGI,[3],33.2 µM
same,TGI,[4],13.9 µM
same,TGI,[5],6.79 µM
same,TGI,[6],13 µM
same,TGI,[7],12.7 µM
same,TGI,[8],12.3 µM
same,TGI,[9],28.8 µM
same,TGI,[10],33 µM
same,TGI,[11],22.9 µM
same,TGI,[12],14.8 µM
same,TGI,[13],4.5 µM
same,TGI,[14],4.9 µM
same,TGI,[15],19.2 µM
same,TGI,[16],> 39.5 µM
same,TGI,[17],23.3 µM
same,TGI,[18],24.5 µM
same,TGI,[19],26.8 µM
same,TGI,[20],4.71 µM
same,TGI,[21],> 100 µM
same,TGI,[22],21 µM
same,TGI,[23],30.3 µM
same,TGI,[24],10.1 µM
same,TGI,[25],26.1 µM
same,TGI,[26],27.1 µM
same,TGI,[27],34.7 µM
same,TGI,[28],25.9 µM
same,TGI,[29],46.8 µM
same,TGI,[30],31 µM
same,TGI,[31],39.8 µM
same,TGI,[32],12.5 µM
same,TGI,[33],20.7 µM
same,TGI,[34],16.7 µM
same,TGI,[35],32.1 µM
same,TGI,[36],6.93 µM
same,TGI,[37],19.7 µM
same,TGI,[38],14.4 µM
same,TGI,[39],22.8 µM
same,TGI,[40],24.2 µM
same,TGI,[41],31.4 µM
same,TGI,[42],20.7 µM
same,TGI,[43],14.3 µM
same,TGI,[44],17.3 µM
same,TGI,[45],19.2 µM
same,TGI,[46],> 29.6 µM
same,TGI,[47],41.6 µM
same,TGI,[48],38.4 µM
same,TGI,[49],33.5 µM
same,TGI,[50],4.35 µM
same,TGI,[51],> 95.3 µM
same,TGI,[52],6.33 µM
same,TGI,[53],28.1 µM
same,TGI,[54],18.5 µM
same,TGI,[55],5.1 µM
same,TGI,[56],29.9 µM
same,TGI,[57],15.7 µM
same,TGI,[58],21.8 µM
Cc1cc(S(=O)(=O)n2cc[nH]c2=O)c(SCCCN(C)C)cc1Cl,TGI,[1],> 100 µM
same,TGI,[2],> 100 µM
same,TGI,[3],> 100 µM
same,TGI,[4],> 100 µM
same,TGI,[5],> 100 µM
same,TGI,[6],> 100 µM
same,TGI,[7],> 100 µM
same,TGI,[8],> 100 µM
same,TGI,[9],> 100 µM
same,TGI,[10],> 100 µM
same,TGI,[11],> 100 µM
same,TGI,[12],> 100 µM
same,TGI,[13],> 100 µM
same,TGI,[15],> 100 µM
same,TGI,[16],> 100 µM
same,TGI,[17],> 100 µM
same,TGI,[18],> 100 µM
same,TGI,[19],> 100 µM
same,TGI,[20],> 100 µM
same,TGI,[21],> 100 µM
same,TGI,[22],> 100 µM
same,TGI,[23],> 100 µM
same,TGI,[24],> 100 µM
same,TGI,[25],> 100 µM
same,TGI,[26],> 100 µM
same,TGI,[27],> 100 µM
same,TGI,[28],> 100 µM
same,TGI,[29],> 100 µM
same,TGI,[59],> 100 µM
same,TGI,[30],> 100 µM
same,TGI,[31],> 100 µM
same,TGI,[33],> 100 µM
same,TGI,[34],> 100 µM
same,TGI,[35],> 100 µM
same,TGI,[36],> 100 µM
same,TGI,[37],> 100 µM
same,TGI,[38],> 100 µM
same,TGI,[39],> 100 µM
same,TGI,[40],> 100 µM
same,TGI,[41],> 100 µM
same,TGI,[42],> 100 µM
same,TGI,[43],> 100 µM
same,TGI,[44],> 100 µM
same,TGI,[46],> 100 µM
same,TGI,[47],> 100 µM
same,TGI,[48],> 100 µM
same,TGI,[49],> 100 µM
same,TGI,[50],> 100 µM
same,TGI,[51],> 100 µM
same,TGI,[52],> 100 µM
same,TGI,[53],> 100 µM
same,TGI,[54],> 100 µM
same,TGI,[55],> 100 µM
same,TGI,[57],> 100 µM
same,TGI,[58],> 100 µM
NNC1=Nc2ccc(Cl)cc2C(=S)N2CSCC12 (stereo not drawn),TGI,[1],> 100 µM
same,TGI,[2],> 100 µM
same,TGI,[3],> 100 µM
same,TGI,[4],> 100 µM
same,TGI,[5],> 100 µM
same,TGI,[6],> 100 µM
same,TGI,[7],> 100 µM
same,TGI,[8],> 100 µM
same,TGI,[9],> 100 µM
same,TGI,[10],> 100 µM
same,TGI,[11],> 100 µM
same,TGI,[12],> 100 µM
same,TGI,[15],> 100 µM
same,TGI,[16],> 100 µM
same,TGI,[17],> 100 µM
same,TGI,[18],> 100 µM
same,TGI,[19],> 100 µM
same,TGI,[20],> 100 µM
same,TGI,[21],> 100 µM
same,TGI,[22],> 100 µM
same,TGI,[23],> 100 µM
same,TGI,[24],> 100 µM
same,TGI,[25],> 100 µM
same,TGI,[26],> 100 µM
same,TGI,[27],> 100 µM
same,TGI,[28],> 100 µM
same,TGI,[29],> 100 µM
same,TGI,[59],> 100 µM
same,TGI,[30],> 100 µM
same,TGI,[31],> 100 µM
same,TGI,[32],> 100 µM
same,TGI,[33],> 100 µM
same,TGI,[34],> 100 µM
same,TGI,[35],> 100 µM
same,TGI,[36],> 100 µM
same,TGI,[37],> 100 µM
same,TGI,[38],> 100 µM
same,TGI,[40],> 100 µM
same,TGI,[41],> 100 µM
same,TGI,[42],> 100 µM
same,TGI,[43],> 100 µM
same,TGI,[44],> 100 µM
same,TGI,[46],> 100 µM
same,TGI,[47],> 100 µM
same,TGI,[48],> 100 µM
same,TGI,[49],> 100 µM
same,TGI,[50],> 100 µM
same,TGI,[51],> 100 µM
same,TGI,[52],> 100 µM
same,TGI,[53],> 100 µM
same,TGI,[54],> 100 µM
same,TGI,[55],> 100 µM
same,TGI,[56],> 100 µM
same,TGI,[57],> 100 µM
same,TGI,[58],> 100 µM
